Reference: paper PMC10459042, “Synthesis of 1,2,3-Triazole-Containing Methoxylated Cinnamides and Their Antileishmanial Activity against the Leishmania braziliensis Species” (Pharmaceuticals, 2023)

Legend:
[1] = tested on: Leishmania braziliensis stationary promastigotes; assay: In vitro antileishmanial activity against promastigotes (MTT); assay type: cell-based; conditions: Leishmania braziliensis; 48 h at 24 °C, MTT, mean ± standard deviation
Description: The study was approved by the Committee for the Ethical Handling of Research Animals from the Federal University of Minas Gerais (protocol number 085/2017). Leishmania braziliensis (MHOM/BR/1975/M2904) promastigotes were grown at 24 °C in Schneider’s medium (Sigma-Aldrich, USA) supplemented with 20% heat-inactivated fetal bovine serum (FBS, Sigma-Aldrich, USA) and 20 mmol/L L-glutamine at pH 7.4 [65].
(§1) The in vitro antileishmanial activity was evaluated by incubating the promastigotes or axenic amastigotes (1 × 10^6 cells/well) with the 24 synthetic derivatives (Compounds 5–28; 0 to 600 µg/mL) in 96-well culture plates (Nunc, Nunclon, Roskilde, Denmark) for 48 h at 24 °C. Due to the difficulty in obtaining a high concentration of murine macrophages, the cytotoxicity experiment was evaluated by incubating such cells (5 × 10^5 per mL) with Compound 28 (0 to 600 µg/mL), which presented the best antileishmanial activity, for 48 h at 37 °C in a 5% CO2 environment. AmpB (0 to 10 µg/mL; Sigma-Aldrich, St. Louis, MO, USA) was used as a positive control in both experiments. The cell viability was assessed using the 3-(4.5-dimethylthiazol-2-yl)-2.5-diphenyl tetrazolium bromide (MTT, Sigma-Aldrich, St. Louis, MO, USA) method. The optical density (OD) values were read using a microplate spectrophotometer (Molecular Devices, Spectra Max Plus, San Jose, CA, USA) at 570 nm. Results were entered into Microsoft Excel (version 10.0) spreadsheets, and the 50% Leishmania and macrophage inhibitory concentrations (IC50 and CC50, respectively) were calculated by applying a sigmoidal regression of the dose–response curve. The SI was calculated by dividing the CC50 with the respective IC50 values.

[2] = tested on: Leishmania braziliensis axenic amastigotes; assay: In vitro antileishmanial activity against axenic amastigotes (MTT); assay type: cell-based; conditions: Leishmania braziliensis, 48 h, 48 h at 24 °C, MTT, mean ± standard deviation
Description: To obtain the axenic amastigotes, 1 × 10^9 stationary promastigotes were washed three times in sterile phosphate-buffered saline (PBS) and incubated in 5 mL FBS for 48 h at 37 °C. Parasites were washed with cold PBS, and their morphology was evaluated with an optical microscope after Giemsa staining as previously described.
as §1

| Structure (SMILES) | IC50 [1] [µg/mL] | IC50 [2] [µg/mL] | melting point [°C] |
| --- | --- | --- | --- |
| COc1ccc(Cn2cc(CNC(=O)/C=C/c3ccc(OC)c(OC)c3)nn2)cc1 [Compound 23, N-((1-(4-methoxybenzyl)-1H-1,2,3-triazol-4-yl)methyl) (3,4-dimethoxy) cinnamide] | > 600 | > 600 | 171.2 to 172 |
| COc1ccc(/C=C/C(=O)NCc2cn(Cc3ccc(F)c(F)c3)nn2)cc1 [Compound 15, N-((1-(3,4-difluorobenzyl)-1H-1,2,3-triazol-4-yl)methyl) (4-methoxy) cinnamide] | > 600 | > 600 | 166.3 to 167.7 |
| COc1ccc(/C=C/C(=O)NCc2cn(Cc3ccc([N+](=O)[O-])cc3)nn2)cc1OC [Compound 22, N-((1-(4-nitrobenzyl)-1H-1,2,3-triazol-4-yl)methyl) (3,4-dimethoxy) cinnamide] | > 600 | > 600 | 217.6 to 218.9 |
| COc1ccc(/C=C/C(=O)NCc2cn(Cc3ccc(Br)cc3)nn2)cc1 [Compound 9, N-((1-(4-bromobenzyl)-1H-1,2,3-triazol-4-yl)methyl) (4-methoxy) cinnamide] | > 600 | > 600 | 193.1 to 194.7 |
| COc1ccc(/C=C/C(=O)NCc2cn(Cc3ccc(F)c(F)c3)nn2)cc1OC [Compound 26, N-((1-(3,4-difluorobenzyl)-1H-1,2,3-triazol-4-yl)methyl) (3,4-dimethoxy) cinnamide] | > 600 | > 600 | 166 to 167.2 |
| COc1ccc(/C=C/C(=O)NCc2cn(Cc3ccc(OC)cc3)nn2)cc1 [Compound 12, N-((1-(4-methoxybenzyl)-1H-1,2,3-triazol-4-yl)methyl) (4-methoxy) cinnamide] | > 600 | > 600 | 169 to 170.2 |
| COc1ccc(/C=C/C(=O)NCc2cn(Cc3ccc(Cl)cc3)nn2)cc1 [Compound 8, N-((1-(4-chlorobenzyl)-1H-1,2,3-triazol-4-yl)methyl) (4-methoxy) cinnamide] | > 600 | > 600 | 185.7 to 186.5 |
| COc1ccc(/C=C/C(=O)NCc2cn(Cc3ccc(C)cc3)nn2)cc1OC [Compound 16, N-((1-(4-methylbenzyl)-1H-1,2,3-triazol-4-yl)methyl) (3,4-dimethoxy) cinnamide] | > 600 | > 600 | 191.6 to 192.2 |
| COc1ccc(/C=C/C(=O)NCc2cn(Cc3ccc(F)cc3)nn2)cc1OC [Compound 18, N-((1-(4-fluorobenzyl)-1H-1,2,3-triazol-4-yl)methyl) (3,4-dimethoxy) cinnamide] | > 600 | > 600 | 174.8 to 175.5 |
| COc1ccc(/C=C/C(=O)NCc2cn(Cc3ccc(I)cc3)nn2)cc1 [Compound 10, N-((1-(4-iodobenzyl)-1H-1,2,3-triazol-4-yl)methyl) (4-methoxy) cinnamide] | > 600 | > 600 | 200.6 to 202 |
| CCN(CC)c1ccc2cc(-n3cc(CNC(=O)/C=C/c4ccc(OC)cc4)nn3)c(=O)oc2c1 [Compound 27, N-((1-(7-(diethylamino)-2-oxo-2H-chromen-3-yl)-1H-1,2,3-triazol-4-yl)methyl) (4-methoxy) cinnamide] | > 600 | > 600 | 191.3 to 192.7 |
| COc1ccc(/C=C/C(=O)NCc2cn(Cc3ccc([N+](=O)[O-])cc3)nn2)cc1 [Compound 11, N-((1-(4-nitrobenzyl)-1H-1,2,3-triazol-4-yl)methyl) (4-methoxy) cinnamide] | > 600 | > 600 | 192.2 to 193.4 |

Continued, values first:

| IC50 [1] [µg/mL] | IC50 [2] [µg/mL] | melting point [°C] | Structure (SMILES) |
| --- | --- | --- | --- |
| > 600 | > 600 | 187.4 to 188.3 | COc1ccc(/C=C/C(=O)NCc2cn(Cc3ccc(C(C)C)cc3)nn2)cc1 [Compound 6, N-((1-(4-isopropylbenzyl)-1H-1,2,3-triazol-4-yl)methyl) (4-methoxy) cinnamide] |
| > 600 | > 600 | 166 to 167.2 | COc1ccc(/C=C/C(=O)NCc2cn(Cc3ccc(C)cc3)nn2)cc1 [Compound 5, N-((1-(4-methylbenzyl)-1H-1,2,3-triazol-4-yl)methyl) (4-methoxy) Cinnamide] |
| > 600 | > 600 | 196.4 to 197.6 | COc1ccc(/C=C/C(=O)NCc2cn(Cc3ccc(C(F)(F)F)cc3)nn2)cc1OC [Compound 25, N-((1-(4-(trifluoromethyl)benzyl)-1H-1,2,3-triazol-4-yl)methyl) (3,4-dimethoxy) cinnamide] |
| > 600 | > 600 | 175.5 to 176.4 | COc1ccc(/C=C/C(=O)NCc2cn(Cc3ccc(C(C)C)cc3)nn2)cc1OC [Compound 17, N-((1-(4-isopropylbenzyl)-1H-1,2,3-triazol-4-yl)methyl) (3,4-dimethoxy) cinnamide] |
| > 600 | > 600 | 198.2 to 199.6 | COc1ccc(/C=C/C(=O)NCc2cn(Cc3ccc(Br)cc3)nn2)cc1OC [Compound 20, N-((1-(4-bromobenzyl)-1H-1,2,3-triazol-4-yl)methyl) (3,4-dimethoxy) cinnamide] |
| > 600 | > 600 | 194 to 194.9 | COc1ccc(/C=C/C(=O)NCc2cn(Cc3ccc(I)cc3)nn2)cc1OC [Compound 21, N-((1-(4-iodobenzyl)-1H-1,2,3-triazol-4-yl)methyl) (3,4-dimethoxy) cinnamide] |
| > 600 | > 600 | 177.4 to 178.6 | COc1ccc(/C=C/C(=O)NCc2cn(Cc3ccc(OC(F)(F)F)cc3)nn2)cc1OC [Compound 24, N-((1-(4-(trifluoromethoxy)benzyl)-1H-1,2,3-triazol-4-yl)methyl) (3,4-dimethoxy) cinnamide] |
| > 600 | > 600 | 178.6 to 180 | COc1ccc(/C=C/C(=O)NCc2cn(Cc3ccc(F)cc3)nn2)cc1 [Compound 7, N-((1-(4-fluorobenzyl)-1H-1,2,3-triazol-4-yl)methyl) (4-methoxy) cinnamide] |
| > 600 | > 600 | 220.5 to 221.9 | COc1ccc(/C=C/C(=O)NCc2cn(Cc3ccc(C(F)(F)F)cc3)nn2)cc1 [Compound 14, N-((1-(4-(trifluoromethyl)benzyl)-1H-1,2,3-triazol-4-yl)methyl) (4-methoxy) cinnamide] |
| > 600 | > 600 | 189.6 to 190.8 | COc1ccc(/C=C/C(=O)NCc2cn(Cc3ccc(Cl)cc3)nn2)cc1OC [Compound 19, N-((1-(4-chlorobenzyl)-1H-1,2,3-triazol-4-yl)methyl) (3,4-dimethoxy) cinnamide] |
| > 600 | > 600 | 191.4 to 193 | COc1ccc(/C=C/C(=O)NCc2cn(Cc3ccc(OC(F)(F)F)cc3)nn2)cc1 [Compound 13, N-((1-(4-(trifluoromethoxy)benzyl)-1H-1,2,3-triazol-4-yl)methyl) (4-methoxy) cinnamide] |
